In one data set the test system is SW480 cells. The experiment in a line: Western blot analysis in SW480 cells. It is filed as cell-based, human. On the procedure: SW-480 and HT-29 (3×10^5) cells were seeded in six-well plates in DMEM/Ham's F-12 media containing 2.5% charcoal-stripped FBS for 24 h and then treated with either the vehicle (DMSO) or the indicated compounds. Whole-cell lysates were obtained using high-salt buffer [50 mM HEPES, 500 mM NaCl, 1.5 mM MgCl2, 1 mM EGTA, 10% glycerol, and 1% Triton X-100, pH 7.5, and 5 μl/ml Protease Inhibitor Cocktail (Sigma-Aldrich)]. Protein samples were incubated at 100° C. for 2 min, separated on 10% SDS-PAGE at 120 V for 3 to 4 h in 1× running buffer (25 mM Tris-base, 192 mM glycine, and 0.1% SDS, pH 8.3), and transferred to polyvinylidene difluoride membrane (PVDF; Bio-Rad, Hercules, Calif.) at […] for 16 h at 4° C. in 1× transfer buffer (48 mM Tris-HCl, 39 mM glycine, and 0.025% SDS). The PVDF membrane was blocked in 5% TBST-Blotto (10 mM Tris-HCl, 150 mM NaCl, pH 8.0, 0.05% Triton X-100, and 5% nonfat dry milk) with gentle shaking for 30 min and was incubated in fresh 5% TBST-Blotto with 1:1000 (for caveolin-1, p27, p21, cyclin D1, Grp78), 1:500 (for KLF4, NAG-1), 1:250 (for PARP), and 1:5000 (for β-actin) primary antibody overnight with gentle shaking at 4° C. After washing with TBST for 10 min, the PVDF membrane was incubated with secondary antibody (1:5000) in 5% TBST-Blotto for 90 min. The membrane was washed with TBST for 10 min, incubated with 10 ml of chemiluminescence substrate (PerkinElmer) for 1.0 min, and exposed to Kodak X-OMAT AR autoradiography film (Eastman Kodak, Rochester, N.Y.).
(In general: Immunoblotting shows a protein as a band on a membrane.)

The subject of data set [1] is PPARγ. As to conditions: SW480 cells, previous studies (22); cited from earlier work.
The next data set has as its system SW480 colon cancer cells. The data set is described as follows: Cell proliferation assay in SW480 cells. As to conditions: Homo sapiens, read-out: IC50, growth inhibition / cell proliferation. It is filed as cell-based. On the procedure:
(§1) Human colon carcinoma cell lines SW480 and HT29 were provided by Dr. Stan Hamilton, M.D. Anderson Cancer Center (Houston, Tex.); SW-480 and HT-29 cells were maintained in Dulbecco's modified Eagle's medium nutrient mixture with Ham's F-12 (DMEM/Ham's F-12; Sigma-Aldrich, St. Louis, Mo.) with phenol red supplemented with 0.22% sodium bicarbonate, 0.011% sodium pyruvate, and 5% fetal bovine serum and 10 ml/l 100× antibiotic antimycotic solution (Sigma-Aldrich). Cells were maintained at 37° C. in the presence of 5% CO2.
(§2) SW480 and HT 29 Cells (2×10^4) were plated in 12-well plates, and media were replaced the next day with DMEM/Ham's F-12 media containing 2.5% charcoal-stripped FBS and either vehicle (DMSO) or the indicated ligand and dissolved in DMSO. Fresh media and compounds were added every 48 h. Cells were counted at the indicated times using a Coulter Z1 cell counter. Each experiment was done in triplicate, and results are expressed as means±S.E. for each determination

Data set [2] has as its system Panc28 pancreatic cancer cells. The experiment in a line: Growth inhibition in Panc28 pancreatic cancer cells. As to conditions: Pancreatic cancer cell. It is filed as cell-based.
The next data set concerns HT-29 colon cancer cells. The experiment in a line: Cell proliferation assay in HT-29 cells. Particulars: Homo sapiens, read-out: IC50, growth inhibition / cell proliferation. It is filed as cell-based. Here is the method:
as §1, §2

Data set [3] concerns PPARγ. The experiment in a line: PPARγ-GAL4/pGAL4 transfection and luciferase assay in SW480 cells. It is filed as cell-based. As to conditions: for PPARγ transactivation: up to 30 μM. Here is the method: (§3) The Gal4 reporter containing 5× Gal4 response elements (pGal4) was kindly provided by Dr. Marty Mayo (University of North Carolina, Chapel Hill, N.C.). Gal4 DBD-PPARγ construct (gPPARγ) was a gift of Dr. Jennifer L. Oberfield (GlaxoSmithKline Research and Development, Research Triangle Park, N.C.). PPRE3-luc construct contains three tandem PPREs with a minimal TATA sequence in pGL2.
(§4) Colon Cancer cell lines SW480 and HT29 (1×10^5 cells/well) were plated in 12-well plates in DMEM/Ham's F-12 media supplemented with 2.5% charcoal-stripped FBS. After 16 h, various amounts of DNA [i.e., Gal4Luc (0.4 μg), β-Gal (0.04 μg), Gal4PPAR and PPRE3-Luc (0.04 μg)] were transfected using LipofectAMINE™ reagent (Invitrogen) following the manufacturer's protocol. Five hours after transfection, the transfection mix was replaced with complete media containing either vehicle (DMSO) or the indicated ligand for 20 to 22 h. Cells were then lysed with 100 μl of 1× reporter lysis buffer, and 30 μl of cell extract was used for luciferase and […] assays. A LumiCount™ luminometer (PerkinElmer Life and Analytical Sciences) was used to quantitate luciferase and β-Gal activities, and the luciferase activities were normalized to β-Gal activity. Results are expressed as means±S.E. for at least three replicate determinations for each treatment group

Data set [4] relates to PPARγ. The data set is described as follows: PPARγ-GAL4/pGAL4 transfection and luciferase assay in HT-29 cells. It is filed as cell-based. Here is the method:
as §3, §4

Data set [5] addresses T1, PPARγ (Homo sapiens, UniProt P37231).
T1 construct: endogenous in cells; host or cells: SW480 colon cancer cells
T1 sequence (P37231 1-505): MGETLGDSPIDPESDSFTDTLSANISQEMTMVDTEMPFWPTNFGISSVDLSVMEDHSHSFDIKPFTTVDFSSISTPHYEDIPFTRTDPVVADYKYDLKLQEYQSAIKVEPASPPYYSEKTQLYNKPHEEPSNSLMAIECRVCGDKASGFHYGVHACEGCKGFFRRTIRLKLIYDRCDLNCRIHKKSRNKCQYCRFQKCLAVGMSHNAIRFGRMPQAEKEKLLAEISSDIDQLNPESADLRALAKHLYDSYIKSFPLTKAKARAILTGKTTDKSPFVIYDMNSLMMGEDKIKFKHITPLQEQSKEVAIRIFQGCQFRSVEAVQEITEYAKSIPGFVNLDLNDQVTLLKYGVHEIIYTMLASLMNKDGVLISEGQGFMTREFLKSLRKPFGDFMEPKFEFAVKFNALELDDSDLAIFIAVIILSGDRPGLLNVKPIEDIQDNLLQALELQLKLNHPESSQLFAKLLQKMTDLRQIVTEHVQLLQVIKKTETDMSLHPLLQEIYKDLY
The data set is described as follows: PPRE3-Luc transfection and luciferase assay in SW480 cells. It is filed as cell-based. On the procedure: as §3, §4

In data set [6] the test system is LNCaP human prostate carcinoma cells. The data set is described as follows: Cell proliferation assay in LNCaP cells. As to conditions: 96 hr, read-out: IC50, inhibition of LNCaP cell growth. It is filed as cell-based. Here is the method:
Cell lines: LNCaP human prostate carcinoma cells were obtained from American Type Culture Collection (Manassas, Va.). Fetal bovine serum was obtained from JRH Biosciences, Lenexa, Kans. LNCaP cells were maintained in RPMI 1640 (Sigma Chemical, St. Louis, Mo.) supplemented with 0.22% sodium bicarbonate, 0.011% sodium pyruvate, 0.45% glucose, 0.24% HEPES, 10% FBS, and 10 mL/L of 100× antibiotic/antimycotic solution (Sigma). Cells were maintained at 37° C. in the presence of 5% CO2.
Cell Proliferation and DNA Fragmentation Assays: LNCaP prostate cancer cells (2×10^4 per well) were added to 12-well plates and allowed to attach for 24 hr. The medium was then changed to DMEM/Ham's F-12 media containing 2.5% charcoal-stripped FBS, and either vehicle (DMSO) or the indicated C-DIMs were added. Fresh medium and indicated compounds were added every 48 hr, and cells were then trypsinized and counted after 2, 4, and 6 days using a Coulter Z1 cell counter (Beckman Coulter, Fullerton, Calif.). Each experiment was done in triplicate, and results are expressed as means±S.E. for each set of three experiments. The DNA fragmentation assay was performed using a BioVision Apoptotic DNA ladder extraction kit (BioVision, Mountain View, Calif.) according to the manufacturer's protocol.

Data set [7] deals with PPARγ. The experiment in a line: PPARγ-GAL4/GAL4-Luc or PPRE3-Luc transactivation in LNCaP cells. It is filed as cell-based. As to conditions: 1-5 μM. The text has this:
Transfections: The Gal4 reporter construct containing 5× Gal4 response elements (pGal4) was kindly provided by Dr. Marty Mayo (University of North Carolina, Chapel Hill, N.C.). The Gal4 DBD-PPARγ construct was a gift of Dr. Jennifer L. Oberfield (Glaxo Wellcome Research and Development, Research Triangle Park, N.C.). The PPRE-luc construct contains three tandem PPREs with a minimal TATA sequence linked to the luciferase gene in pGL2. The AR-luc construct containing the −5400 to +580 region of the androgen receptor promoter was provided by Dr. Donald J. Tindall (Mayo Clinic, Rochester, Minn.), and the PSA-luc construct containing the 5.8-kilobase region of the PSA promoter was provided by Dr. Hong-Wu Cheng (University of California, Davis, Calif.). LNCaP cells (1×10^5) were seeded in 12-well plates in DMEM/Ham's F-12 media supplemented with 2.5% charcoal-stripped FBS and grown overnight. Transient transfections were performed using Lipofectamine reagent (Invitrogen) according to the protocol provided by the manufacturer. Transfection studies were performed using 0.4 μg of Gal4Luc, 0.04 μg of β-galactosidase, 0.04 μg of Gal4 DBD-PPARγ, 0.4 μg of AR-luc, and 0.3 μg of PSA-luc. Six hr after transfection, the transfection mix was replaced with complete media containing either vehicle (DMSO) or the indicated ligand for 20 to 22 hr. Cells were then lysed with 100 μl of 1× reporter lysis buffer, and 30 μl of cell extract was used for luciferase and β-galactosidase assays. A Lumicount luminometer (PerkinElmer Life and Analytical Sciences) was used to quantify luciferase and β-galactosidase activities, and the luciferase activities were normalized to β-galactosidase activity.

Usually melting point stands for the temperature of the solid-liquid transition.

Where only a bound is given, the exact number is not on record here.

`CC1(C)CC[C@]2(C(=O)O)CC[C@]3(C)[C@H](C(=O)C=C4[C@@]5(C)C=C(C#N)C(=O)C(C)(C)[C@@H]5CC[C@]43C)[C@@H]2C1` [CDDO, 2-cyano-3,12-dioxo-oleana-1, 9(11)-diene-28-oic acid, reference compound]: the caveolin-1 protein expression result in the data set with SW480 cells (SW480, treatment for 3 days) was “induce caveolin-1 protein”. Also, the “luciferase activity with GAL4-PPARγ/GAL4-Luc” value in the data set with PPARγ [1] is recorded as “induced luciferase activity”.

As to `COC(=O)[C@@]1(C)CC[C@]2(C)CC[C@]3(C)C(=CC(=O)[C@@H]4[C@@]5(C)C=C(C#N)C(=O)C(C)(C)[C@@H]5CC[C@]43C)[C@H]2C1` [α-CDODA-Me, Methyl 2-cyano-3,11-dioxo-18α-oleana-1,12-dien-30-oate], the IC50 was 0.5 µM in the data set with SW480 colon cancer cells and 0.5 to 1 µM in data set [2].

`CC1(C)C(=O)C(C#N)=C[C@]2(C)[C@H]3C(=O)C=C4[C@@H]5C[C@@](C)(C(=O)O)CC[C@]5(C)CC[C@@]4(C)[C@]3(C)CC[C@@H]12` [β-CDODA, 2-cyano-3,11-dioxo-18β-oleana-1,12-dien-30-oic acid] returned a melting point of 195 to 197 °C. Also, the IC50 with SW480 colon cancer cells is 2.5 to 5 µM. Also, in the data set with HT-29 colon cancer cells, the IC50 turned out to be 1 µM. Besides, the “induced luciferase activity after cotreatment with PPARγ antagonist T007” value in the data set with PPARγ [3] (1.0, 2.5, 5.0 β-CDODA-Me or 10, 20, 30 μM β-CDODA, 10 μM T007) was “inhibited”. For the same molecule, in the data set with PPARγ [3] (20-30 μM), the “increase in luciferase activity (PPARγ activation)” value is recorded as less than 4.5 fold. Moreover, the “PPARγ transactivation (GAL4-PPARγ/GAL4-Luc)” value with PPARγ [4] is “induced transactivation”. At PPARγ [5], the “transactivation of PPRE3-Luc” value is recorded as “induced transactivation”. Moreover, the “PPRE3-Luc transactivation after cotreatment with PPARγ antagonists T007 and GW9662” value at PPARγ [5] (10 μM antagonist) was “inhibited”. The “concentration at which KLF4 is induced” value in the data set with SW480 cells (SW480, 24 hr) lay within 10 to 20 µM. Further, the PARP cleavage entry in the data set on SW480 cells (SW480, 24 hr, 10-40 μM) was “observed”.

Molecule `CC1(C)C(=O)C=C[C@]2(C)[C@H]3C(=O)C=C4[C@@H]5C[C@@](C)(C(=O)O)CC[C@]5(C)CC[C@@]4(C)[C@]3(C)CC[C@@H]12` [β-DODA, 3,11-Dioxo-18β-oleana-1,12-dien-30-oic acid] had a melting point of 270 to 275 °C. Besides, the IC50 in the data set with SW480 colon cancer cells was 25 µM. In the data set with HT-29 colon cancer cells, the IC50 lay within 20 to 30 µM. Moreover, the PPARγ transactivation entry in the data set on PPARγ [3] was “did not enhance transactivation”. In addition, in the data set with PPARγ [4], the “PPARγ transactivation (GAL4-PPARγ/GAL4-Luc)” value is reported as “minimal activity”. In data set [6], the IC50 is more than 15 µM.

The molecule `COC(=O)[C@@]1(C)CC[C@]2(C)CC[C@]3(C)C(=CC(=O)[C@@H]4[C@@]5(C)C=CC(=O)C(C)(C)[C@@H]5CC[C@]43C)[C@@H]2C1` [β-DODA-Me, Methyl 3,11-dioxo-18β-oleana-1,12-dien-30-oate] gave a melting point of 192 to 194 °C. The IC50 in the data set with SW480 colon cancer cells came out at 10 µM. Also, in the data set on HT-29 colon cancer cells, the IC50 was in the range of 5 to 10 µM. The PPARγ transactivation entry in the data set with PPARγ [3] was “did not enhance transactivation”. Moreover, in the data set on PPARγ [4], the “PPARγ transactivation (GAL4-PPARγ/GAL4-Luc)” value is recorded as “minimal activity”. For the same molecule, the IC50 in data set [6] was in the range of 10 to 15 µM. For the same molecule, the “PPARγ-dependent transactivation (luciferase activity)” value in the data set with PPARγ [7] is recorded as “did not activate PPARγ”.

“Methyl 2-iodo-3,11-dioxo-18β-oleana-1,12-diene-30-oate [β-IDODA-Me]”: the “PPARγ-dependent transactivation (luciferase activity)” value in the data set with PPARγ [7] is given as “did not activate PPARγ”.

These data come from patent US8389573B2, “Glycyrrhetinic acid derivatives” (Wellington Laboratories Inc., priority 2006, dated 2013).
